Some test systems named below: CAKI-1 renal; NCI-H226 lung; NCI/ADR-RES ovarian; SF-268 CNS; SK-MEL-2 melanoma; SN12C renal; SW-620 colon; UACC-257 melanoma; UACC-62 melanoma; UO-31 renal.
Assay in all cases: DTP human tumour cell line panel, 48 h

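96-well plates; 48 h exposure; 5 concentrations. Endpoints by linear interpolation between flanking doses. Not reached: highest tested concentration assigned. GI50 is the concentration that inhibits growth by half. The concentration for full growth arrest is given as TGI.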 Bounds are passed on as bounds.

This is an account of results in PubChem BioAssay (NCI).

Regarding `C=C1CCC2C3(C)COC(C)(C)OC3CCC2(C)C1C/C=C1/C(=O)OCC1OC(C)=O` (stereo not given), the GI50 (in general, the concentration at which growth is held to half of that of the control) with CAKI-1 renal was 4.92 µM; in the assay on NCI-H226 lung it was 12.8 µM; in the assay with NCI/ADR-RES ovarian it was 3.06 µM; in the assay with SF-268 CNS, 5.83 µM; in the assay on SK-MEL-2 melanoma it was 3.52 µM; in the assay on SN12C renal it was 5.95 µM. The GI50 in the assay on SW-620 colon was 1.27 µM; in the assay on UACC-257 melanoma, 2.02 µM; in the assay with UACC-62 melanoma it was 4.04 µM; in the assay with UO-31 renal, 6.27 µM. Moreover, the TGI (as a rule, the concentration giving total growth inhibition) in the assay with CAKI-1 renal was 13 µM; in the assay with NCI-H226 lung, 33.7 µM; in the assay with NCI/ADR-RES ovarian, 11.1 µM; in the assay on SF-268 CNS, 17.6 µM; in the assay on SK-MEL-2 melanoma, 15.6 µM; with SN12C renal, 22.6 µM. Besides, the concentration for total growth inhibition (TGI) in the assay with SW-620 colon worked out at 2.74 µM; in the assay with UACC-257 melanoma it was 5.62 µM; with UACC-62 melanoma it was 17 µM; in the assay on UO-31 renal it was 15.5 µM.

Regarding `CC(CO)Nc1cc(-c2[nH]c3cccnc3c2-c2ccc(F)cc2)ccn1` (stereo not given), the GI50 in the assay with CAKI-1 renal was 8.23 µM; in the assay with NCI-H226 lung, > 23.8 µM; with NCI/ADR-RES ovarian, > 25 µM; in the assay with SF-268 CNS, 16.7 µM; with SK-MEL-2 melanoma, > 25 µM; in the assay with SN12C renal, 15.1 µM. The GI50 in the assay with SW-620 colon was 20.3 µM; with UACC-257 melanoma, > 25 µM; with UACC-62 melanoma, 11.4 µM; with UO-31 renal, 3.89 µM. For the same compound, the TGI with CAKI-1 renal, in the assay on NCI-H226 lung, with NCI/ADR-RES ovarian, in the assay on SF-268 CNS, with SK-MEL-2 melanoma and in the assay on SN12C renal was > 25 µM each time. The concentration for total growth inhibition (TGI) in the assay on SW-620 colon, in the assay on UACC-257 melanoma, with UACC-62 melanoma and with UO-31 renal was > 25 µM each time.

For `CN(C)c1cc2ccccc2oc1=O`, the TGI with CAKI-1 renal, in the assay on NCI-H226 lung, with NCI/ADR-RES ovarian, in the assay on SF-268 CNS, in the assay with SK-MEL-2 melanoma and in the assay on SN12C renal was > 100 µM in each case. For the same compound, the concentration for total growth inhibition (TGI) in the assay with SW-620 colon, in the assay with UACC-257 melanoma, with UACC-62 melanoma and in the assay on UO-31 renal was > 100 µM each time.

For `CCSC1=NC2C(N(CC)C(=O)N2CC)N1/N=C/C=C/c1ccccc1[N+](=O)[O-]` (stereo not given), the GI50 in the assay with CAKI-1 renal is 0.0647 µM; in the assay with NCI-H226 lung it was 0.381 µM; in the assay on NCI/ADR-RES ovarian, 0.209 µM; in the assay on SF-268 CNS, 0.486 µM; with SK-MEL-2 melanoma it was 0.567 µM; with SN12C renal, 0.401 µM. The GI50 was 0.186 µM in the assay with SW-620 colon, 23.8 µM with UACC-257 melanoma, 0.0604 µM in the assay with UACC-62 melanoma and 0.664 µM in the assay on UO-31 renal. Moreover, the TGI in the assay on CAKI-1 renal, with NCI-H226 lung, in the assay with NCI/ADR-RES ovarian, in the assay with SF-268 CNS, with SK-MEL-2 melanoma and with SN12C renal was > 100 µM throughout. For the same compound, the TGI in the assay on SW-620 colon, in the assay on UACC-257 melanoma, in the assay on UACC-62 melanoma and in the assay with UO-31 renal was > 100 µM in each case.

Regarding `O=C1/C(=C/c2ccc([N+](=O)[O-])cc2)CN(C(=O)CCN2CCC(=NO)CC2)C/C1=C\c1ccc([N+](=O)[O-])cc1`, the GI50 with CAKI-1 renal was 0.756 µM; with NCI-H226 lung it was 2.03 µM; in the assay with NCI/ADR-RES ovarian, 1.49 µM; in the assay with SF-268 CNS, 1.07 µM; in the assay with SK-MEL-2 melanoma, 4.74 µM; in the assay with SN12C renal, 0.677 µM. Besides, the GI50 in the assay on SW-620 colon is 0.311 µM; in the assay on UACC-257 melanoma, 2.43 µM; in the assay with UACC-62 melanoma it was 0.866 µM; in the assay with UO-31 renal it was 1.14 µM. In addition, the concentration for total growth inhibition (TGI) in the assay on CAKI-1 renal came to 2.39 µM; in the assay with NCI-H226 lung, 5.41 µM; in the assay on NCI/ADR-RES ovarian it was 17.8 µM; with SF-268 CNS, 6.01 µM; in the assay on SK-MEL-2 melanoma it was 16.6 µM; with SN12C renal, 2.51 µM. Besides, the TGI with SW-620 colon came out at 0.982 µM; in the assay on UACC-257 melanoma, 7.97 µM; in the assay on UACC-62 melanoma, 2.49 µM; with UO-31 renal it was 2.55 µM.

With `CCCN1C(=O)NC(=O)C(CC)(N2C(=O)c3c(F)c(F)c(F)c(F)c3C2=O)C1=O` (stereo not given), the GI50 with CAKI-1 renal was 1.86 µM; in the assay with NCI-H226 lung, 3.08 µM; with NCI/ADR-RES ovarian it was 2.91 µM; with SF-268 CNS, 2 µM; with SK-MEL-2 melanoma, 2.95 µM; in the assay with SN12C renal, 2.16 µM. Besides, the GI50 is 1.3 µM in the assay with SW-620 colon, 2.99 µM in the assay with UACC-257 melanoma, 1.99 µM in the assay on UACC-62 melanoma and 1.63 µM in the assay with UO-31 renal. The concentration for total growth inhibition (TGI) came to 3.75 µM with CAKI-1 renal; 12.1 µM in the assay on NCI-H226 lung; 10.5 µM in the assay on NCI/ADR-RES ovarian; 5.07 µM with SF-268 CNS; 8.32 µM in the assay with SK-MEL-2 melanoma; 6.14 µM in the assay on SN12C renal. Further, the concentration for total growth inhibition (TGI) worked out at 2.82 µM with SW-620 colon, 8.63 µM in the assay on UACC-257 melanoma, 5.94 µM with UACC-62 melanoma and 4.32 µM with UO-31 renal.

For `O=c1oc2ccccc2c2c1Sc1ccccc1N2`, the TGI with CAKI-1 renal, in the assay on NCI-H226 lung, in the assay on NCI/ADR-RES ovarian, with SF-268 CNS, in the assay on SK-MEL-2 melanoma and with SN12C renal was > 100 µM each time. Besides, the TGI in the assay on SW-620 colon, in the assay on UACC-257 melanoma, in the assay on UACC-62 melanoma and in the assay with UO-31 renal was > 100 µM throughout.

In the case of `O=S(=O)(/N=c1\scc(-c2ccccc2)n1-c1ccccc1)c1ccc(N2N=C3c4ccccc4CC3C2c2ccc(Cl)cc2)cc1` (stereo not given), the GI50 in the assay with CAKI-1 renal was 46.4 µM; in the assay on NCI-H226 lung it was 94.6 µM; in the assay with NCI/ADR-RES ovarian it was 51.5 µM; in the assay with SF-268 CNS, > 100 µM; with SK-MEL-2 melanoma, 36 µM; in the assay with SN12C renal, 50.8 µM. Moreover, the GI50 is 35 µM with SW-620 colon, 83.5 µM in the assay on UACC-257 melanoma, 32.7 µM with UACC-62 melanoma and 45.4 µM in the assay with UO-31 renal. Besides, the total growth inhibition concentration (TGI) with CAKI-1 renal, with NCI-H226 lung, in the assay with NCI/ADR-RES ovarian, in the assay on SF-268 CNS, in the assay with SK-MEL-2 melanoma and with SN12C renal was > 100 µM each time. The concentration for total growth inhibition (TGI) with SW-620 colon, with UACC-257 melanoma, in the assay with UACC-62 melanoma and with UO-31 renal was > 100 µM in each case.

In the case of `O=C(Oc1cccnc1)c1cccnc1Nc1ccnc(C(F)(F)F)c1`, the GI50 was 4.73 µM with CAKI-1 renal; 12.3 µM in the assay on NCI-H226 lung; > 100 µM with NCI/ADR-RES ovarian; 5.63 µM in the assay on SF-268 CNS; 5.7 µM in the assay on SK-MEL-2 melanoma; 6.48 µM in the assay on SN12C renal. The GI50 with SW-620 colon is 5.47 µM; in the assay on UACC-257 melanoma, 27.1 µM; in the assay on UACC-62 melanoma, 5.78 µM; with UO-31 renal it was 10 µM. Further, the TGI was 30.2 µM in the assay on CAKI-1 renal; 71.4 µM in the assay with NCI-H226 lung; > 100 µM in the assay with NCI/ADR-RES ovarian; > 100 µM with SF-268 CNS; 62 µM with SK-MEL-2 melanoma; > 100 µM in the assay on SN12C renal. Besides, the concentration for total growth inhibition (TGI) with SW-620 colon was > 100 µM; in the assay with UACC-257 melanoma it was > 100 µM; in the assay on UACC-62 melanoma, 24.1 µM; with UO-31 renal, 81.5 µM.

Turning to `COc1ccc(-c2noc(C(=O)O)c2-c2cc(OC)c(OC)c(OC)c2)cc1`, the GI50 is 2.35 µM in the assay with CAKI-1 renal; > 100 µM with NCI-H226 lung; 1.47 µM in the assay on NCI/ADR-RES ovarian; 7.63 µM with SF-268 CNS; 5.9 µM in the assay with SK-MEL-2 melanoma; 37.2 µM in the assay on SN12C renal. The GI50 in the assay on SW-620 colon was 1.53 µM; in the assay with UACC-257 melanoma, > 100 µM; with UACC-62 melanoma it was 11.1 µM; with UO-31 renal, 5.45 µM. Further, the TGI with CAKI-1 renal, in the assay with NCI-H226 lung, in the assay on NCI/ADR-RES ovarian, with SF-268 CNS, in the assay on SK-MEL-2 melanoma and with SN12C renal was > 100 µM in each case. For the same compound, the total growth inhibition concentration (TGI) with SW-620 colon, in the assay with UACC-257 melanoma, with UACC-62 melanoma and in the assay on UO-31 renal was > 100 µM in each case.
